Measurements reported in patent US11707448B2, “Combination therapies for the treatment of cancer” (Eisai R&D Management Co., Ltd., priority 2014, dated 2023).

Experiments:
CT26 tumors [1] = test: CT26 tumor model, ER-886046 with anti-PDL1 or anti-PD1; type: in vivo, mice
Description: FIG. 9A to FIG. 9B. […] Anti-PDL1 dosing: 200 μg per iv injection on days 9, 12, 15 and 18 post cell implantation as indicated by the arrows; […] Anti-PD1 dosing: 200 μg per iv injection on days 9, 12, 15, 18 and 21 post cell implantation as indicated by the arrows; […] Animal studies; In vitro cultured cancer cells were harvested and suspended in 100 μl of phosphate buffered saline at a cell concentration of 1.0×10^5 cells/ml and subcutaneously (sc) injected into the mice using a 26 g syringe on day 0. […] The animals that were assigned to the treatment groups in individual study had close mean tumor weights in all groups. […] Graphs of group tumor sizes (mean±SEM) and body weights (mean±SEM) versus time were plotted using software GraphPad Prism 6 (Lake Forest, Calif.). Student t-test and Gehan-Breslow-Wilcoxon test were used for statistical analysis.

CT26 tumors [2] = test: Bilateral CT26 tumor model (abscopic effect); type: in vivo, mice
Description: FIG. 5A to FIG. 5B. Anti-tumor effect of ER-886046/radiation in a bilateral tumor model. Two similar-sized CT-26 tumors were grown in a host by injecting CT26 cells subcutaneously on both right and left flanks of Ba1B/c mice. Radiation was applied to the right flank tumor on both day 9 and day 13 as indicated by arrows in panel A. ER-886046 was administered daily po to the animals at a dose of 150 mg/kg as indicated by the bars. ER-886046 was dosed to animals from day 9 to day 27. Panel shown in FIG. 5A) Average size of the right flank tumor that received radiation and ER-886046. Panel shown in FIG. 5B) Average size of the left flank tumor that received no radiation (radiation administered only to the right flank tumor).
Abscopic effect of the combination treatment of ER-886046 and radiation in an animal model. Induction of anti-tumor immune response can be systemic and thus highly valuable for treating metastatic cancer, which has multiple lesions in one host. To mimic the large metastatic lesions in mice, we simultaneously grew CT26 tumors on both sides of an individual mouse by subcutaneously injecting cancer cells. The tumors on the right side of the mice were treated with both radiation and ER-886046. The tumors on the left side of the mice received ER-886046 only.

C[C@H](NC(=O)c1c(C(F)F)nn(C)c1Oc1cccc(C(F)(F)F)c1)c1ccc(C(=O)O)cc1 [ER-886046]
anti-tumor activity compared to anti-PDL1 alone (CT26 tumors [1]; ER-886046 150 mg/kg po daily day 9-19 + anti-PDL1 200 μg): better anti-tumor activity | anti-tumor activity compared to anti-PD1 alone (CT26 tumors [1]; ER-886046 150 mg/kg po daily day 9-23 + anti-PD1 200 μg): better anti-tumor activity | growth of right side tumor (radiated) (CT26 tumors [2]; ER-886046 150 mg/kg po daily day 9-27 + radiation of right flank tumor day 9 and 13, vs radiation alone or ER-886046 alone): better tumor growth suppression | growth of left side tumor (not radiated) (CT26 tumors [2]; ER-886046 150 mg/kg po daily day 9-27, radiation only to right flank tumor, vs no ER-886046 treatment): significantly reduced tumor growth rate
